According to a melting point compilation (Tetko et al.; mined from patent text by program, amines drawn as free bases though some values may be those of a salt):

Row | Structure (SMILES) | melting point [°C]
1 | CC1(c2ccc(O)c(O)c2)C(=O)Nc2ccccc2C1=O (stereo not given) | 259 to 261
2 | N=C(NC=Cc1ccc([N+](=O)[O-])cc1)c1cccc([N+](=O)[O-])c1 | 152 to 155
3 | COc1c(F)cccc1-c1cnn2ccc(N3CCN(C(=O)OC(C)C)CC3)nc12 | 52 to 53
4 | CC(=O)Nc1cc(=O)c2cc(Oc3ccccc3)c(NS(C)(=O)=O)cc2o1 | 236 to 238
5 | O=C(c1ccccc1)N1CC2CC=Cc3cccc1c32 (stereo not given) | 89 to 91
6 | Nc1c(C(F)(F)F)cc(OCc2ccccc2)cc1C(F)(F)F | 58 to 59
7 | O=C(O)Cn1c(=O)c(=O)[nH]c2ccc([N+](=O)[O-])cc21 | 305 to 306
8 | CCOC(=O)c1nn(-c2ccc(C=O)cc2)nc1-c1ccccc1 | 96 to 97
9 | CCCCN(C1CS(=O)(=O)c2cc([N+](=O)[O-])ccc21)S(C)(=O)=O (stereo not given) | 52 to 55
10 | COc1cc(Nc2cc3c(cc2Nc2ccccc2)C(=O)NC3=O)cc(OC)c1OC | 203 to 205
11 | CC#CCOc1ccc(SC(C(=O)NO)c2ccccc2)cc1 (stereo not given) | 151
12 | COc1cc2c(c(C)c1C)C(O)CC2c1c[nH]cn1 (stereo not given) | 184 to 189
13 | CCNC(=O)NCCC1CCCc2ccc(OC)cc21 (stereo not given) | 70 to 71
14 | CCn1cc(C=CC(=O)NC2CCNC(=O)C2)nc1-c1ccccc1 (stereo not given) | 270 to 272
15 | CC(C)(C)OC(=O)Nc1ccc(C#Cc2ccccc2F)cc1[N+](=O)[O-] | 140 to 142
16 | C=CCONC(=O)c1nc(-c2ccc(F)cc2)cc(N)c1Cl | 182 to 185
17 | Cc1c(F)c(F)cc(C(=O)O)c1F | 101 to 102
18 | O[C@@H]1CN=C(c2ccoc2)O[C@H]1c1ccccc1 (racemic) | 160
19 | O=C(CN1c2nc(-c3ccncn3)cc(=O)n2CCC12CCN(C(=O)c1cccc(F)c1)C2)c1ccccc1 (stereo not given) | 267 to 268
20 | COc1ccc(NC(=O)c2ccccc2NC(=O)c2ccc(C(C)(C)C)cc2)cc1 | 208 to 210
21 | CN1C(=O)COc2cc3c(cc21)C1(CO3)C(=O)Nc2ccccc21 (stereo not given) | > 250
22 | CC(=O)OC1CN(c2c(F)cc3c(=O)c(C(=O)O)cn(C4CC4)c3c2F)C1 | 259 to 262
23 | CCOc1ccc(C(=O)[C@H]2CC=CC[C@H]2C(=O)O)cc1OCC (relative stereo) | 125 to 127
24 | CCOc1ccc(NC(N)=S)cn1 | 142 to 146
25 | CC(=O)c1cc(S(N)(=O)=O)ccc1F | 172 to 173

Row | Structure (SMILES) | melting point [°C]
26 | COc1cc2c(cc1S(=O)(=O)c1ccc(C)cc1)[C@@H](N1CCCCC1=O)[C@H](O)C(C)(C)O2 (relative stereo) | 261 to 263
27 | Clc1nc2cc3c(cc2s1)OCO3 | 131 to 132
28 | CN(C)c1ccc2c(c1)C(=O)CC(c1ccccc1OCc1ccccc1)=N2 | 210 to 212
29 | Cc1cccc2c(=O)c(CCCl)n[nH]c12 | 222 to 225
30 | CN(C(N)=O)c1cc(C(C)(C)C)on1 | 134 to 135
31 | CCOCc1nc2c(N)nc3cc(OCc4ccccc4)ccc3c2n1CC1COC(C)(C)O1 (stereo not given) | 186 to 187
32 | CC(=O)N[C@@H]1CCN(S(=O)(=O)c2ccc(Cl)c(CBr)c2Cl)C1 | 222
33 | NC(=O)c1cc2c(OCCCN3CCN(c4cc(N5CCCC5)nc(N5CCCC5)n4)CC3)cccc2[nH]1 | 151 to 152
34 | COc1ccc(S(=O)(=O)C(CCCc2ccccc2)CC(=O)O)cc1OC (stereo not given) | 161 to 162
35 | OCCCCCCCCCCCOc1ccc(-c2nc(-c3ccccc3)nc(-c3ccc(OCCCCCCCCCCCO)cc3O)n2)c(O)c1 | 126 to 135
36 | O=C(O)c1ccccc1Oc1ccc(Br)cc1NS(=O)(=O)c1cc(C(F)(F)F)cc(C(F)(F)F)c1 | 158 to 159
37 | CCC1(C)SC(N(C)C(=O)NC)=NN1C(=O)C(C)(C)C (stereo not given) | 124 to 127
38 | COc1ccc(C2CCCN(C(=O)C(F)(F)F)C2)cc1NC(=O)NOCc1ccccc1 (stereo not given) | 134
39 | COc1ccc(C(=O)Nc2c[nH]nc2C(=O)NCCC#N)cc1 | 199 to 200
40 | CCC(=O)N(CC)c1cccc(-c2ccc3nncn3n2)c1 | 127 to 130
41 | N#Cc1c(N2CCN(C(=O)c3cccs3)CC2)c2cc(Cl)ccc2n(Cc2ccccc2)c1=O | 266
42 | COc1ccc(C(=O)O)c(OCc2cccc(OCc3ccc4ccccc4n3)c2)c1 | 117 to 118
43 | NC(=O)C1CN(CC(=O)Nc2c(Cl)cccc2Cl)CCN1 (stereo not given) | 180 to 183
44 | O=C(O)c1ccc(CN(Cc2ccc(C(F)(F)P(=O)(O)O)c(Br)c2)S(=O)(=O)c2ccccc2)cc1 | 160 to 162
45 | COC(=O)c1ccc(N2C(=O)CCC2(CO)CCO)c([N+](=O)[O-])c1 (stereo not given) | 151 to 153
46 | CCOC(=O)C1=C(C)NC2=C(C(=O)OC2)C1c1ccccc1Cl (stereo not given) | 211 to 212
47 | CCCc1ccnc2c(=O)[nH]c(-c3cc(S(=O)(=O)NC)ccc3OCC)nc12 | 216 to 219
48 | CCCn1cc2c(C3C(=O)Nc4ccc(C#N)cc43)nc(NCCc3cccnc3)nc2n1 (stereo not given) | 302 to 305
49 | Nc1c(-c2ccc(Br)cc2)nc2ccc(F)cc2c1C(=O)O | 231 to 233
50 | CC(=O)Nc1ccc(Sc2cccn3nc(Cl)nc23)cc1 | 148 to 150

Row | Structure (SMILES) | melting point [°C]
51 | COc1ccc2c(c1)[C@H]1CN(C)CC[C@@H]1CC2=O (relative stereo) | > 250
52 | O=C(COc1ccc(Cl)cc1)N1Cc2ccc(C(=O)C(Cl)(Cl)Cl)n2Cc2ccccc21 | 165 to 167
53 | N=C(N)Nc1nc(CCCCNc2c(NCCSCc3csc(NC(=N)N)n3)c(=O)c2=O)cs1 | 208 to 210
54 | CC(=O)OC(C)OC1=C(C(=O)Nc2cccc(C)n2)N(C)S(=O)(=O)c2ccccc21 (stereo not given) | 190 to 191
55 | CC(C)(C)CNS(=O)(=O)c1cccc([N+](=O)[O-])c1 | 99
56 | O=C(O)c1ccc2c(c1)Sc1ccc(Cl)cc1C=C2 | 302 to 304
57 | O=C(O)C1Oc2ccc(Cl)cc2C(c2ccccc2)(c2ccccc2)O1 (stereo not given) | 226
58 | O=C(Nc1cccc(F)c1)NC1CCN(S(=O)(=O)c2ccc(Cl)cc2)CC1 | 245 to 248
59 | COC(=O)c1ncn2c1CN(C)C(=O)c1sccc1-2 | 244 to 245
60 | O=c1[nH]c(=O)n(CCCCl)c2ccccc12 | 183 to 184
61 | CC1(C)Nc2ccc(Cl)cc2N(C2CC2)C1=O | 132 to 133
62 | CC(C)NCC(O)COc1ccccc1-c1ccc(=S)[nH]n1 (stereo not given) | 166 to 168
63 | CC(C)(C)OC(=O)Nc1ccn2nc(N3CCOCC3)nc2c1 | 92 to 93
64 | COC(=O)NNC(=S)Cc1ccc(Cl)cc1 | 148
65 | COc1c(N2CCNC(C3CC3)C2)c(F)cc2c(=O)c(C(=O)O)cn([C@@H]3C[C@@H]3F)c12 (stereo not given in full) | 136 to 139
66 | COC(=O)c1cccc(NC=O)n1 | 134 to 136
67 | N#Cc1cnc2sc(-c3ccccc3)cc2c1Oc1ccc2[nH]ccc2c1 | 219 to 221
68 | CCOC(=O)C1=C(COCC=NO)NC(C)=C(C(=O)OC)C1c1ccccc1Cl (stereo not given) | 161 to 162
69 | Nc1ccnc(CCCCN2C(=O)c3ccccc3C2=O)n1 | 139 to 140
70 | COC(=O)c1ccc(NC(=O)c2ccccc2-c2ccccc2)cc1 | 160 to 161
71 | O=[N+]([O-])C1=Cc2cc3c(cc2OC1)OCO3 | 139
72 | CC1=NN=C(C=Cc2ccc(F)cc2)c2cc3c(cc2C1)OCO3 | 141 to 144
73 | CCCCS(=O)(=O)C1CC(=O)N1CC(=O)CCc1ccccc1 (stereo not given) | 93 to 94
74 | CSc1c(O)cncc1Oc1ccccc1 | 131 to 133
75 | CS(=O)(=O)Cc1cc(C(=O)CBr)ccc1OCc1ccccc1 | 143 to 144

Row | Structure (SMILES) | melting point [°C]
76 | CC(=O)N1CCN(c2ccc(-n3ccnc3)cc2)CC1 | 181 to 182
77 | CC(C)(C)C(=O)Nc1ccc(Cl)cc1F | 70.5 to 71
78 | COc1c2c(cc3c1OCO3)C(OC(C)=O)CN(C)C2 (stereo not given) | 109 to 110
79 | Clc1ccc([C@@H]2CNc3c(ccc4ccccc34)S2)cc1 | 205 to 206
80 | CS(=O)(=O)c1ccc(N2C[C@H](COc3ccon3)OC2=O)cc1 | 180
81 | Cc1nc2cc(NC(=O)c3cc4cc(F)ccc4n3Cc3cccc(F)c3)ccn2c1C | 251 to 253
82 | Cc1nc(Cl)ccc1C#N | 104 to 105
83 | Cc1c(C)c(N2C(=O)c3ccccc3C2=O)c(C)c2c1OC(C)(C)C2c1ccc(F)cc1 (stereo not given) | 209 to 211
84 | Cc1c(NC(=O)c2ccc(-c3ccc(F)cc3)cc2)ccc2cc(CN3CCC3)cnc12 | 153 to 155
85 | CCc1c(-c2ccc(OCc3ccccc3)cc2)c2cc(C(=O)OC)c3c(NC(C)=O)ccc1n23 | 210 to 213
86 | CC(C)(Oc1cccc2ccccc12)C(=O)Nc1ccc(C(=O)O)cc1 | 155
87 | O=C(c1ccccc1)C(Cc1ccc(Cl)cc1)c1cccnn1 (stereo not given) | 140 to 142
88 | COC(=O)c1ccc2ccc(S(=O)(=O)N(Cc3ccccc3)Cc3ccccc3)cc2c1 | 141 to 142
89 | NC(=O)NCCN1CCC(O[N+](=O)[O-])CC1 | 114 to 116
90 | CC(=O)Nc1cccc(-c2ccc3nc(-c4cccnc4N)n(-c4ccc(CNC(=O)c5ccccc5)cc4)c3n2)c1 | 205 to 208
91 | Cc1ccc(S(=O)(=O)OCCCC2CCN(C(c3ccccc3)(c3ccccc3)c3ccccc3)CC2)cc1 | 131
92 | CCCCc1c(Cl)nc(NC=O)nc1Cl | 82 to 83
93 | COc1ccnc(CCc2nc3c(C)ccnc3[nH]2)c1 | 143 to 144
94 | O=C(O)CCCCCc1c([N+](=O)[O-])cc(O)c(O)c1[N+](=O)[O-] | 120 to 127
95 | COc1ccc2c(c1)C(=O)C(=Cc1ccccc1)C2 | 131 to 133
96 | O=C(O)c1cccc(-c2ccc(-c3ccc(C(F)(F)F)cc3)o2)c1 | 271 to 272
97 | CC(C)(C)C(=O)CC(=O)NC1CCCCC1 | 69 to 70
98 | CCOC(=O)c1cc2cccnc2n1Cc1ccccc1 | 71 to 72
99 | Cc1cc(NC(=O)c2cccc(CCc3cccnc3)c2)ccc1C(C)C | 143 to 144
100 | COC(=O)c1ccc2c(=O)[nH]c(=O)n(CCCCBr)c2c1 | 184 to 185
